In patent US20080063601A1, “Compositions and methods relating to polycystic kidney disease” (priority 2004, published 2008):

Legend:
[1] = Dose finding / toxicity in pregnant C57B1/6 mice; assay type: in vivo
Method: Triptolide has been previously studied in rodent models of tumor regression (Tengchaisri, et al., 1998, Cancer Lett 133, 169-175; Yang, et al., 2003, Mol Cancer Ther 2, 65-72), but it had not yet been tested in a system utilizing pregnant females. To first establish a potential therapeutic versus lethal concentration of drug delivery, pregnant C57B1/6 mice were treated with incremental concentrations of triptolide between 0.01-0.15 mg/kg/day i.p. injections. Toxicity was assessed as determined by resorption of all embryos or the preponderance of a large percentage of stillborns. With reference to these criteria, triptolide toxicity was determined to be most prominent at concentrations of 0.1 mg/kg/day or greater. […] Another experimental parameter involved the timing of the start of triptolide injections, since polycystin-2 has been implicated in left-right axis formation in the developing embryo at approximately E7.75 (McGrath, et al., 2003, Cell 114, 61-73; Pennekamp, et al., 2002, Curr Biol 12, 938-943). Applicants therefore chose E10.5 as the start of triptolide injections, in order to allow for a normal polycystin-2 mediated patterning event and still leave sufficient time to act on cyst formation during kidney organogenesis.

[2] = tested on: HeLa cells; assay: [3H]-triptolide saturation (specific) binding in HeLa cells; conditions: 0-100 nM [3H]-triptolide 1 h, non-specific binding with 2 μM cold triptolide, read-out: [3H]-triptolide binding affinity (KD), specific binding
Method: Based upon the data above, Applicant next sought to determine if triptolide binding was saturable and if more than one protein (or binding site) was being targeted. Determination of the [^3H]-triptolide binding affinity (KD) and the binding capacity per cell (Bmax) were calculated using a saturation plot. HeLa cells were cultured to 90% confluency and subsequently treated with 0-100 nM of [^3H]-triptolide for one hour. Non-specific binding was defined using 2 μM cold triptolide as competitor. Bmax was calculated to be 99±19 fmol triptolide bound/[…] of triptolide binding sites.
Saturation binding assays were accomplished in HeLa cells adhered on 6-well plates in DMEM+10% FBS. All samples were at least 90% confluent at time of addition of triptolide. Non-specific binding of [^3H]-triptolide was assessed by the pre-incubation of 2 μM (non-labeled) triptolide for one hour. Following cold competition (or DMSO) 5, 10, 20, 50, or 100 nM of [^3H]-triptolide was added into the cultures for an additional one hour, and then cells were lysed and counted for binding activity.

CC(C)[C@]12O[C@H]1[C@@H]1O[C@]13[C@]1(O[C@H]1C[C@H]1C4=C(CC[C@@]13C)C(=O)OC4)[C@@H]2O [triptolide]
adverse effects ([1]; 0.07 mg/kg/day i.p.): no discernable adverse effects
MTD ([1]; female, mouse, in vivo, ip, read-out: maximum tolerated dose): 0.07 mg/kg/day
dose at which toxicity (resorption of all embryos or large percentage of stillborns) was most prominent ([1]; i.p., 0.01-0.15 mg/kg/day tested): ≥ 0.1 mg/kg/day
Kd [2]: 15.5 ± 0.8 nM
